For test [1], the species on record is Cavia porcellus. Kind of test: Dissociation constant (KB) for competitive inhibition of BHR 920 induced depression of neurotransmission in isolated guinea pig atrium. The test is classed as functional. The following applies: Cardiac atrium.
For test [2], the species on record is Oryctolagus cuniculus. As to the kind of experiment: Ability to block the norepinephrine constrictor response in the rabbit ear artery in a competitive fashion. The test is classed as functional.
The species entered for test [3] is Canis familiaris. As to the kind of experiment: Effective concentration of 100% release of [3H]norepinephrine from electrically stimulated dog splenic arteries. The test is classed as functional, Canis lupus familiaris.
The species entered for test [4] is Cavia porcellus. As to the kind of experiment: Concentration-related inhibition of response to sympathetic nerve stimulation in isolated guinea pig atrium mediated by alpha-2 receptors. The test is classed as functional. The following applies: Cardiac atrium.

Structures are written as SMILES.

As for `CN1CCc2cccc(Cl)c2CC1.Cl`, the Kb in test [1] worked out at 17 nM; in test [2] it was 900 nM. The EC100 in test [3] came out at 210 nM.

`C=CCN1CCc2nc(N)sc2CC1` [TALIPEXOLE] registered a 50% effective concentration (EC50) in test [4] of 100 nM.

One may read the EC50 as the concentration at which the effect is half-maximal.

These data come from ChEMBL document CHEMBL1122276, “6-Chloro-2,3,4,5-tetrahydro-3-methyl-1H-3-benzazepine: a potent and selective antagonist of alpha 2-adrenoceptors” (J Med Chem, 1983).
